According to patent US20250154207A1, “PEPTIDES FOR DISSOLVING PROTEIN AGGREGATES AND METHODS THEREOF” (REJUKON BIOPHARM INC., priority 2022, published 2025):
Entries after “also recorded” stand apart in the source; their conditions may differ.

Legend:
[1] = test system: protein aggregates in eukaryotic cells; assay: depolymerization function in eukaryotic cells; assay type: cell-based; conditions: FIGS. 7-16
Source text: The inventors then selected three peptides PLPR3 (SEQ ID NO: 6), ATXN8OS (SEQ ID NO: 7), and GRWD1 (SEQ ID NO: 8) to verify the depolymerization function in eukaryotic cells with the experimental scheme shown in FIG. 6.

[2] = previously identified, PCT/CN2021/111683; cited from earlier work
G3BP1 aggregates = G3BP1 aggregates (Homo sapiens, UniProt Q13283); assay: in vitro dissolving of protein aggregates by purified peptides; assay type: biochemical
Experimental: Given that the charged amino acid residues have the highest percentage in Champ-E, the inventors first tested the function of the charged amino acid residues in dissolving protein aggregates. The inventors generated a series variant of Champ-E with mutation of aspartic acid residues and tested their capability of dissolving protein aggregates in vitro and in cells. The variant peptides were expressed in E. coli and then purified (see FIG. 3). The purified variant peptides were then added to in vitro protein solution that is capable of forming protein aggregates.

Chain of G3BP1 aggregates (Q13283 whole entry): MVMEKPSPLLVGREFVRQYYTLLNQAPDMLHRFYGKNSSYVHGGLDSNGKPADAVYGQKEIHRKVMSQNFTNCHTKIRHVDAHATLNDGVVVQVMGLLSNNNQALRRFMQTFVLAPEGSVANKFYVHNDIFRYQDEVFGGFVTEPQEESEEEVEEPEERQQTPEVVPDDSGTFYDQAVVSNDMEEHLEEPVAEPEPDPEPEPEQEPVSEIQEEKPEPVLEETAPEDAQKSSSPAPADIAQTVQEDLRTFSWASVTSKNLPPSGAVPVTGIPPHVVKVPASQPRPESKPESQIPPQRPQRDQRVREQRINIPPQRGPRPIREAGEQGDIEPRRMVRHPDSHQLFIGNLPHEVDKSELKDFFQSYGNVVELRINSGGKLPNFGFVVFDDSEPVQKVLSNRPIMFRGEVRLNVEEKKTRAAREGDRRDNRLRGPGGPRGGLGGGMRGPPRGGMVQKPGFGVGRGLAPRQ

Substance	depolymerization effect in eukaryotic cells [1]	also measured
ATXN8OS: SEQ ID NO: 7, PCPGAPCCSLVATGSRVPFSGLKEEEEEDGEDDEEEEEEG; fragment of human protein	have depolymerization effect	
C19L2: SEQ ID NO: 10, LPDVNERIEQFSQEHSVKKKKKKDKHSKKAKKEKKKKSKK; few or no P/G	have depolymerization effect	
CACNA1F: SEQ ID NO: 12, DMEEEEEEEEEEEEEEEEEGAGGVELLQEVVPKEKVVPIP; few or no polar residues	almost no depolymerization effect	
CHD3(E2K): SEQ ID NO: 14, RKKKKKKTKRRKKGKGDGGQKQVKQKSSATLLLTWGLKDV; CHD3 with E mutated to K	still has certain depolymerization effect	
CHD3: SEQ ID NO: 13, REKKEKKTKRRKKGEGDGGQKQVEQKSSATLLLTWGLEDV; mixture of positively and negatively charged residues	some depolymerization effect	
Champ-E: SEQ ID NO: 1, MTEPQEESEEEVEEPEERQQTPEVVPDDSGTFYDQTVSNDLE; charged amphipathic peptide		capable of dissolving protein aggregation [2]: capable of dissolving protein aggregation
GRWD1: SEQ ID NO: 8, SNRLMMLRMHNLHGTKPPPSEGSDEEEEEEDEEDEEERKP; fragment of human protein	have depolymerization effect	
PELP1: SEQ ID NO: 15, GGPPALEEDLTVININSSDEEEEEEEEEEEEEEEEEEEEE		dissolving G3BP1 protein aggregates (G3BP1 aggregates; in vitro, FIG. 17): capable of dissolving G3BP1 protein aggregates
PLPR3: SEQ ID NO: 6, PMAEEEEEEEDEEEEEEEEEEEDEGPAPPSLYPTVQARPG; fragment of human protein	have depolymerization effect	
ZNF326: SEQ ID NO: 11, DEPIEEEEDEDEEEEAEEVGEVEEVEEVEEVREGGIEGEG; few or no polar residues	almost no depolymerization effect	
“Champ”-Q: SEQ ID NO: 5, TQPQQQSQQQVQQPQQRQQTPQVVPDDSGTFYDQTVSNDLQ; uncharged variant of Champ-E		capability of dissolving protein aggregates in vitro (G3BP1 aggregates; purified peptide added to in vitro protein solution capable of forming protein aggregates, FIG. 4): could no longer dissolve protein aggregates; also recorded: no obvious depolymerization effect
